± gives the standard deviation of the averaged measurements.
Tests used:
Details in all cases: 72 h
Caco-2 [1] = assay: cell viability relative to DMSO; higher = less toxic
Calu-3 [2] = assay: as above
Vero E6 [3] = assay: as above
HepG2 [4] = assay: as above
Caco-2 [5] = assay: drug sensitivity score (DSS) for viability; higher = more toxic; extreme values may be limits of the assay
Calu-3 [6] = assay: as above
Vero E6 [7] = assay: as above
HepG2 [8] = assay: as above
Caco-2 [9] = assay: relative viability EC50 (midpoint between 100% and the lowest measured viability); higher = less toxic
Calu-3 [10] = assay: as above
Vero E6 [11] = assay: as above
HepG2 [12] = assay: as above
U2OS [13] = assay: cell viability relative to DMSO; higher = less toxic
U2OS [14] = assay: drug sensitivity score (DSS) for viability; higher = more toxic; extreme values may be limits of the assay
U2OS [15] = assay: relative viability EC50 (midpoint between 100% and the lowest measured viability); higher = less toxic

Row | Structure (SMILES) | cell viability (Caco-2 [1]; 1 nM) [%] | cell viability (Caco-2 [1]; 10 nM) [%] | cell viability (Caco-2 [1]; 100 nM) [%] | cell viability (Caco-2 [1]; 1000 nM) [%] | cell viability (Caco-2 [1]; 10000 nM) [%] | cell viability (Calu-3 [2]; 1 nM) [%] | cell viability (Calu-3 [2]; 10 nM) [%] | cell viability (Calu-3 [2]; 100 nM) [%] | cell viability (Calu-3 [2]; 1000 nM) [%] | cell viability (Calu-3 [2]; 10000 nM) [%] | cell viability (Vero E6 [3]; 1 nM) [%] | cell viability (Vero E6 [3]; 10 nM) [%] | cell viability (Vero E6 [3]; 100 nM) [%] | cell viability (Vero E6 [3]; 1000 nM) [%] | cell viability (Vero E6 [3]; 10000 nM) [%] | cell viability (HepG2 [4]; 1 nM) [%] | cell viability (HepG2 [4]; 10 nM) [%] | cell viability (HepG2 [4]; 100 nM) [%] | cell viability (HepG2 [4]; 1000 nM) [%] | cell viability (HepG2 [4]; 10000 nM) [%] | drug sensitivity score (Caco-2 [5]) | drug sensitivity score (Calu-3 [6]) | drug sensitivity score (Vero E6 [7]) | drug sensitivity score (HepG2 [8]) | relative viability EC50 (Caco-2 [9]) [µM] | relative viability EC50 (Calu-3 [10]) [µM] | relative viability EC50 (Vero E6 [11]) [µM] | relative viability EC50 (HepG2 [12]) [µM] | cell viability (U2OS [13]; 1 nM) [%] | cell viability (U2OS [13]; 10 nM) [%] | cell viability (U2OS [13]; 100 nM) [%] | cell viability (U2OS [13]; 1000 nM) [%] | cell viability (U2OS [13]; 10000 nM) [%] | drug sensitivity score (U2OS [14]) | relative viability EC50 (U2OS [15]) [µM]
1 | Clc1cccc(/C=N/N=C/c2cccc(Cl)c2)c1 [3,3'-dichlorobenzaldazine] | 103 | 99.1 | 105 | 94.7 | 103 | 107 | 93.9 | 96.7 | 97.5 | 96.1 | 99.6 | 103 | 99.5 | 98.9 | 99.5 | 94.8 | 95.6 | 101 | 100 | 84.5 | 0 | 0 | 0 | 0.3 | > 10 | > 10 | > 10 | > 10 | – | – | – | – | – | – | –
2 | CC1Oc2cc(cnc2N)-c2c(nn(C)c2C#N)CN(C)C(=O)c2ccc(F)cc21 (stereo not given) | 89.2 ± 7.6 | 97 ± 8 | 96.15 ± 0.21 | 91.6 ± 4.1 | 83.4 ± 7.8 | 105 ± 5.7 | 95.5 ± 3.8 | 88.7 ± 2.4 | 74.8 ± 4.3 | 78.7 ± 7.5 | 103 ± 4.9 | 92 ± 6.6 | 90.5 ± 2.6 | 80.2 ± 0.28 | 83.2 ± 7.3 | 95 ± 4.1 | 101 ± 9.8 | 99.3 ± 4.7 | 87.5 ± 6.2 | 72.2 ± 6.9 | 0 | 4.85 ± 1.1 | 3.35 ± 0.35 | 2.5 ± 1.6 | > 10 | – | > 10 | – | 97.8 ± 2.6 | 103.8 ± 0.64 | 97.2 ± 2.4 | 96.6 ± 1.4 | 83.5 ± 8.1 | 0.7 ± 0.99 | > 10
3 | O=C(CCCCCCC(=O)Nc1cccnc1)NO [pyroxamide] | 102 | 92.9 | 94.3 | 91.6 | 47.6 | – | – | – | – | – | 99.6 | 103 | 96.3 | 99.9 | 46 | 106 | 99.6 | 98.7 | 76.8 | 7.6 | 4.2 | – | 2.9 | 8.7 | 1.93 | – | 3.14 | 1.54 | 102 | 97.8 | 101 | 90 | 12.6 | 6.5 | 2.22
4 | Cc1ccnc(NS(=O)(=O)c2ccc(N)cc2)n1 [sulfamerazine] | 97 | 89.8 | 92 | 98.7 | 98.2 | – | – | – | – | – | 104 | 98.5 | 97.8 | 97.8 | 97.8 | 104 | 94.1 | 95.5 | 109 | 89.3 | 0 | – | 0 | 0 | > 10 | – | > 10 | > 10 | 102 | 102 | 94.3 | 97.6 | 100 | 0 | > 10
5 | O=C(O)CCN(O)C(=O)CCCCCCCCC1CC1 [TC-E-5002] | 89 | 97.7 | 91.3 | 92.1 | 91.9 | – | – | – | – | – | 97.2 | 99.2 | 97.7 | 93.2 | 94.9 | 96.1 | 103 | 101 | 99.3 | 104 | 0 | – | 0 | 0 | > 10 | – | > 10 | > 10 | – | – | – | – | – | – | –
6 | CC(=O)Nc1ccc(S(=O)(=O)c2ccc(NC(C)=O)cc2)cc1 [acedapsone] | 119 | 115 | 96.2 | 108 | 92.9 | – | – | – | – | – | 106 | 101 | 105 | 99.5 | 98.8 | 105 | 97.3 | 86.3 | 107 | 102 | 0 | – | 0 | 0 | > 10 | – | > 10 | > 10 | 104 | 108 | 102 | 104 | 97.4 | 0 | > 10
7 | C[C@@H]1COCCN1c1cc(C2([S@](C)(=N)=O)CC2)nc(-c2ccnc3[nH]ccc23)n1 [AZD6738] | 92.8 | 100 | 103 | 96.7 | 49.8 | 92.8 | 96 | 108 | 92.7 | 50.2 | 98.8 | 94.5 | 92.1 | 90.9 | 78.5 | 94.5 | 88.6 | 104 | 67.7 | 35.6 | 3.1 | 3.9 | 1.3 | 7.6 | 2.65 | – | > 10 | 0.998 | 94.1 | 101 | 100 | 96.8 | 16.8 | 5.1 | 2.88
8 | O=C(C1CCCCC1)N1CC(=O)N2CCc3ccccc3C2C1 (stereo not given) [praziquantel] | 109 | 112 | 100 | 109 | 70.7 | 102 | 96.9 | 104 | 98.9 | 91.7 | 103 | 102 | 106 | 99.1 | 106 | 107 | 90.7 | 107 | 94.3 | 82.3 | 0.9 | 0 | 0 | 1 | – | > 10 | > 10 | > 10 | 99 | 104 | 100 | 101 | 97.5 | 0 | > 10
9 | O=C(/C=C\n1cnc(-c2cc(C(F)(F)F)cc(C(F)(F)F)c2)n1)NNc1cnccn1 [selinexor] | 97 | 87.9 | 89 | 50.4 | 44.2 | 104 | 93.4 | 66 | 57 | 56.4 | 98.9 | 102 | 81.9 | 42.4 | 24.3 | 108 | 99.2 | 49.6 | 31.9 | 24.5 | 10.4 | 12.5 | 12.9 | 19.9 | 0.248 | – | 0.319 | 0.0686 | 97.1 | 89.9 | 75.8 | 12.7 | 7.6 | 18.8 | 0.189
10 | CCNC(=O)[C@H]1O[C@@H](n2cnc3c(N)ncnc32)[C@H](O)[C@@H]1O [NECA] | 102 | 97.6 | 110 | 111 | 110 | 106 | 102 | 94.9 | 88.5 | 92.8 | 100 | 105 | 96.1 | 101 | 94.4 | 94.8 | 102 | 107 | 105 | 105 | 0 | 0.6 | 0 | 0 | > 10 | > 10 | > 10 | > 10 | – | – | – | – | – | – | –
11 | O=c1onc2cnc3ccccc3n12 [ODQ] | 91.3 | 96 | 95.2 | 89.9 | 112 | – | – | – | – | – | 97.9 | 96.4 | 97.6 | 108 | 105 | 105 | 110 | 100 | 110 | 94.3 | 0 | – | 0 | 0 | > 10 | – | > 10 | > 10 | – | – | – | – | – | – | –
12 | CCCCCCCCOc1ccccc1C(=O)Nc1ccc(C(=O)OCC[N+](C)(CC)CC)cc1 [otilonium] | 89.1 | 99.4 | 97 | 97.5 | 74.7 | 97 | 104 | 91.1 | 96.7 | 89.3 | 103 | 97.2 | 106 | 97.8 | 94.1 | 109 | 96.2 | 108 | 96 | 83.8 | 1.4 | 0 | 0 | 0.7 | – | > 10 | > 10 | > 10 | 101 | 106 | 98 | 101 | 90.7 | 0 | > 10
13 | Cc1[nH]nc(C(F)(F)F)c1Cc1sc2c(c1C(=O)N1C[C@](C)(O)CO1)c(=O)n(C)c(=O)n2C(C)C [AZD3965] | 92.9 | 79.5 | 74.9 | 72 | 76.5 | 93.6 | 101 | 101 | 103 | 107 | 99.8 | 97.5 | 101 | 92.9 | 97.4 | 99.4 | 89.2 | 99.3 | 93.3 | 101 | 10.1 | 0 | 0 | 0 | – | > 10 | > 10 | > 10 | 99.8 | 95.3 | 89 | 92 | 89.2 | 0.6 | > 10
14 | CC(C)[C@H]1C(=O)N[C@@H](CCCNC(=N)N)C(=O)NCC(=O)N[C@@H](CC(=O)O)C(=O)N[C@H](Cc2ccccc2)C(=O)N1C [cilengitide] | 98.6 | 95.4 | 96.5 | 80.5 | 41.1 | 97.6 | 94.3 | 87.1 | 89.4 | 70.5 | 98.1 | 101 | 98.8 | 79.8 | 17 | 103 | 103 | 92.6 | 116 | 103 | 5.8 | 2.8 | 7.7 | 0 | 1.39 | – | 1.57 | > 10 | – | – | – | – | – | – | –
15 | Cn1cc(-c2ccc3ncc(Cc4ccc5ncccc5c4)n3n2)cn1 [NVP-BVU972] | 96.2 | 99.2 | 93.8 | 97.8 | 76.4 | 95.9 | 100 | 98.6 | 101 | 80.8 | 103 | 100 | 103 | 108 | 87.8 | 105 | 107 | 87.2 | 35.8 | 15.6 | 1.2 | 0.5 | 0 | 13.6 | > 10 | > 10 | > 10 | 0.404 | – | – | – | – | – | – | –

— the supplement of paper PMC13380429
